The text below walks through data of ChEMBL document CHEMBL1201862, “PubChem BioAssay data set” (2004).

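Interpolation was linear, between the two tested concentrations surrounding the appropriate level; five concentrations were tested over 48 hours in 96-well plates. The concentration for 50% growth inhibition is given as GI50.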 Activity calls are given as the source filed them. No stated cut-off is given here; in the data, active = GI50 up to about 1.1 µM and inactive = higher.

Test systems include SK-MEL-2; SN12C; UO-31; K562; TK-10; COLO 205; NCI-H226; Malme-3M; RXF 393; NCI-H460; OVCAR-8; UACC-257; LOX IMVI; CAKI-1; HCT-15; LXFL 529; SK-MEL-28; Hs-578T; MDA-N.
Holding throughout (assay): DTP human tumour cell line panel, 48 h

In general, GI50 refers to the concentration that inhibits growth by half. On to `BrC12c3ccccc3Sc3ccccc3C1(Br)c1ccccc12` (configuration not stated), for which the GI50 with SK-MEL-2 was 15.8 µM (inactive); in the assay on SN12C, 25.8 µM (inactive); with UO-31, 33 µM (inactive); in the assay with K562, 22.2 µM (inactive); in the assay with TK-10, 35.6 µM (inactive); with COLO 205 it was 28.8 µM (inactive). Besides, the GI50 is 16.7 µM (inactive) in the assay on NCI-H226; 30.7 µM (inactive) with Malme-3M; 34.2 µM (inactive) with RXF 393; 40.2 µM (inactive) with NCI-H460; 32.1 µM (inactive) in the assay with OVCAR-8; 22.3 µM (inactive) in the assay with UACC-257. The GI50 was 15.8 µM (inactive) in the assay on LOX IMVI, 26.1 µM (inactive) with CAKI-1, 17.8 µM in the assay on HCT-15 and 20.9 µM (inactive) with LXFL 529.

Turning to `CC(C)=Cc1cc(C(=O)NCCNC(=O)c2cc(C=C(C)C)nc(NC#N)n2)nc(NC#N)n1`, the GI50 in the assay on SN12C, with UO-31, in the assay with K562, in the assay with SK-MEL-28, in the assay on TK-10 and with COLO 205 was > 100 µM (inactive) throughout. For the same molecule, the GI50 in the assay on NCI-H226, with Malme-3M, with RXF 393, with NCI-H460, in the assay with OVCAR-8 and in the assay on UACC-257 was > 100 µM (inactive) each time. In addition, the GI50 with LOX IMVI is > 100 µM (inactive); with CAKI-1, > 100 µM (inactive); in the assay with HCT-15 it was above 100 µM; in the assay on LXFL 529, > 100 µM (inactive).

`COc1cc(C(=O)Nc2cccc3ccccc23)c(Br)c(OC)c1OC`: the GI50 in the assay on SK-MEL-2 is > 100 µM (inactive); in the assay with SN12C, > 100 µM (inactive); in the assay with UO-31 it was 31.4 µM (inactive); with K562 it was 43.5 µM (inactive); in the assay with SK-MEL-28 it was 89.9 µM (inactive); in the assay on TK-10 it was > 100 µM (inactive). The GI50 was > 100 µM (inactive) in the assay on COLO 205; 36.3 µM (inactive) in the assay on NCI-H226; 67.6 µM (inactive) in the assay with Malme-3M; 42.7 µM (inactive) in the assay with RXF 393; 64.9 µM (inactive) in the assay with NCI-H460; 0.0416 µM (active) with OVCAR-8. In addition, the GI50 was > 100 µM (inactive) in the assay with UACC-257; 80 µM (inactive) with LOX IMVI; > 100 µM (inactive) in the assay on CAKI-1; above 100 µM in the assay with HCT-15; 31.1 µM (inactive) in the assay on LXFL 529.

For `CCCN(CCCc1ccccc1)CCc1ccc2[nH]c(=S)[nH]c2c1`, the GI50 is 19.3 µM (inactive) with SK-MEL-2; > 100 µM (inactive) with SN12C; 6.75 µM (inactive) in the assay with UO-31; 2.02 µM (inactive) in the assay with K562; 20.1 µM (inactive) in the assay with SK-MEL-28; 71.1 µM (inactive) in the assay on TK-10. For the same molecule, the GI50 in the assay on COLO 205 was 16.8 µM (inactive); with Hs-578T, 39.8 µM (inactive); with NCI-H226, 66.5 µM (inactive); with Malme-3M it was 12.9 µM (inactive); in the assay on RXF 393, 11.2 µM (inactive); in the assay on NCI-H460, 13.2 µM (inactive). The GI50 in the assay on OVCAR-8 was 28.8 µM (inactive); with UACC-257, 25.6 µM (inactive); with LOX IMVI, 31.3 µM (inactive); in the assay on MDA-N, 19.2 µM (inactive); with CAKI-1, 28.9 µM (inactive); in the assay on HCT-15 it was 25.8 µM.

With `O=C(O)c1cc2c(cc1CC(Cc1ccccc1)C(=O)O)CCC2` (configuration not stated), the GI50 in the assay with SK-MEL-2, in the assay on SN12C, with UO-31, with K562, with SK-MEL-28 and in the assay on TK-10 was > 100 µM (inactive) in each case. Also, the GI50 in the assay on COLO 205, with Hs-578T, with NCI-H226, in the assay on Malme-3M, in the assay on RXF 393 and in the assay on NCI-H460 was > 100 µM (inactive) each time. For the same molecule, the GI50 in the assay on OVCAR-8 was > 100 µM (inactive); in the assay with UACC-257 it was > 100 µM (inactive); in the assay with LOX IMVI, > 100 µM (inactive); with MDA-N it was > 100 µM (inactive); with CAKI-1, > 100 µM (inactive); in the assay on HCT-15, above 100 µM.

For the molecule `Cn1c2c(c3ccccc31)CCN(CCCN1CCN(c3cccc(Cl)c3)CC1)C2=O`, the GI50 with SN12C is 21.4 µM (inactive); with UO-31, 11 µM (inactive); in the assay with K562 it was 14.8 µM (inactive); in the assay on SK-MEL-28, 17.4 µM (inactive); with TK-10 it was 27.8 µM (inactive); in the assay with COLO 205, 15.1 µM (inactive). For the same molecule, the GI50 in the assay with RXF 393 is 14.9 µM (inactive); in the assay on NCI-H460, 5.81 µM (inactive); in the assay with OVCAR-8, 23.7 µM (inactive); in the assay on LOX IMVI, 20.2 µM (inactive); in the assay with CAKI-1, 20.8 µM (inactive); in the assay on HCT-15, 25.1 µM. In the assay on LXFL 529, the GI50 was 16.2 µM (inactive).

Consider `Cc1ccc2cccc3c2c1CC1(C3=O)S(=O)(=O)OCCOS1(=O)=O`, for which the GI50 in the assay on SK-MEL-2, in the assay with SN12C, with UO-31, in the assay on K562, in the assay on SK-MEL-28 and in the assay with TK-10 was > 100 µM (inactive) each time. In addition, the GI50 in the assay on COLO 205, in the assay on Hs-578T, with NCI-H226, with Malme-3M, in the assay with RXF 393 and with NCI-H460 was > 100 µM (inactive) each time. Also, the GI50 in the assay on OVCAR-8 was > 100 µM (inactive); in the assay with UACC-257, > 100 µM (inactive); with LOX IMVI, > 100 µM (inactive); with MDA-N, > 100 µM (inactive); in the assay with CAKI-1, > 100 µM (inactive); in the assay on HCT-15, above 100 µM.

Regarding `CC[C@H](C)C(=O)O[C@H]1CCC=C2C=C[C@H](C)[C@H](CC[C@@H]3C[C@@H](O)CC(=O)O3)[C@H]21` [MEVASTATIN], the GI50 is 5.77 µM (inactive) with SK-MEL-2; > 78.9 µM (inactive) with SN12C; 9.06 µM (inactive) with UO-31; 30.1 µM (inactive) in the assay on K562; 60.7 µM (inactive) in the assay with SK-MEL-28; 36.6 µM (inactive) with TK-10. Moreover, the GI50 in the assay with COLO 205 was 12.9 µM (inactive); in the assay with Hs-578T, 3.42 µM (inactive); with NCI-H226 it was 25.4 µM (inactive); with Malme-3M, 34.1 µM (inactive); with RXF 393 it was 14.3 µM (inactive); in the assay with NCI-H460 it was 28 µM (inactive). The GI50 with OVCAR-8 is 8.26 µM (inactive); with UACC-257, 50.4 µM (inactive); with LOX IMVI it was 1.97 µM (inactive); in the assay with MDA-N, > 100 µM (inactive); in the assay with CAKI-1 it was 3.37 µM (inactive); in the assay on HCT-15, 4.06 µM.

`FC(F)(F)c1ccc2c(c1)nc(-c1ccccc1)n2CC1CCCN2CCCCC12` (configuration not stated): the GI50 is 15.3 µM (inactive) with SK-MEL-2; 18.6 µM (inactive) in the assay on SN12C; 0.27 µM (active) in the assay on UO-31; 21.1 µM (inactive) with K562; 18.2 µM (inactive) in the assay on SK-MEL-28; 19.6 µM (inactive) in the assay on TK-10. The GI50 is 13 µM (inactive) in the assay with COLO 205; 16.8 µM (inactive) in the assay on Hs-578T; 20.8 µM (inactive) with NCI-H226; 13.7 µM (inactive) with Malme-3M; 19 µM (inactive) in the assay with RXF 393; 19.6 µM (inactive) with NCI-H460. Further, the GI50 in the assay on OVCAR-8 is 18.6 µM (inactive); in the assay with UACC-257, 15.9 µM (inactive); in the assay with LOX IMVI, 15.4 µM (inactive); in the assay on MDA-N, 17.6 µM (inactive); with CAKI-1, 17.3 µM (inactive); in the assay on HCT-15, 21.9 µM.
